Where a SMILES comes first, the peptide text is derived from it. [ ]: non-standard residue; d: D form. The star is where a group is joined. X2 = NC(=NC(=O)c1nc(Cl)c(N)nc1N)NCCCCN1C(=O)CC(*)C1=O; Ahx = NCCCCCC(=O)O

One test addresses T1, ENaC (Homo sapiens, UniProt P37088+P51168+P51170).
T1 construct: Primary NHBE cells were isolated from bronchi of normal healthy patients; endogenous in cells; host or cells: primary normal human bronchial epithelial (NHBE) cells, differentiated at air-liquid interface
T1 sequence (P37088 1-669): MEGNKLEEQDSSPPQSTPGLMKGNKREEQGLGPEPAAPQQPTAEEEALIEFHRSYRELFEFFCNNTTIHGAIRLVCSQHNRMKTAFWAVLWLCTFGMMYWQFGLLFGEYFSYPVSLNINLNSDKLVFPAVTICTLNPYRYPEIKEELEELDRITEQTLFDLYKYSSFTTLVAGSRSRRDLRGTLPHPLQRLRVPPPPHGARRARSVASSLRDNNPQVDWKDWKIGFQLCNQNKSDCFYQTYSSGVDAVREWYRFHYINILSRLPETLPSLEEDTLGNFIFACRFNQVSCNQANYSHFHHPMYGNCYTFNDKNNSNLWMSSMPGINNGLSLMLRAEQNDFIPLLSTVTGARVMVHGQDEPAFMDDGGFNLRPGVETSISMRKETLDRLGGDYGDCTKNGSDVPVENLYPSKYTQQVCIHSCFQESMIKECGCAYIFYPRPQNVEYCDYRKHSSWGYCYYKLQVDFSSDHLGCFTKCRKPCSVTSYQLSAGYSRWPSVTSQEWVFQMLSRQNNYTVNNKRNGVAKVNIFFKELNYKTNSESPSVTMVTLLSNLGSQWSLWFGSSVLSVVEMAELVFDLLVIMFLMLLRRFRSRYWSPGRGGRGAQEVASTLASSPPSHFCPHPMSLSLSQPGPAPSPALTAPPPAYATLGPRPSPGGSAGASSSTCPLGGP
T1 sequence (P51168 1-640): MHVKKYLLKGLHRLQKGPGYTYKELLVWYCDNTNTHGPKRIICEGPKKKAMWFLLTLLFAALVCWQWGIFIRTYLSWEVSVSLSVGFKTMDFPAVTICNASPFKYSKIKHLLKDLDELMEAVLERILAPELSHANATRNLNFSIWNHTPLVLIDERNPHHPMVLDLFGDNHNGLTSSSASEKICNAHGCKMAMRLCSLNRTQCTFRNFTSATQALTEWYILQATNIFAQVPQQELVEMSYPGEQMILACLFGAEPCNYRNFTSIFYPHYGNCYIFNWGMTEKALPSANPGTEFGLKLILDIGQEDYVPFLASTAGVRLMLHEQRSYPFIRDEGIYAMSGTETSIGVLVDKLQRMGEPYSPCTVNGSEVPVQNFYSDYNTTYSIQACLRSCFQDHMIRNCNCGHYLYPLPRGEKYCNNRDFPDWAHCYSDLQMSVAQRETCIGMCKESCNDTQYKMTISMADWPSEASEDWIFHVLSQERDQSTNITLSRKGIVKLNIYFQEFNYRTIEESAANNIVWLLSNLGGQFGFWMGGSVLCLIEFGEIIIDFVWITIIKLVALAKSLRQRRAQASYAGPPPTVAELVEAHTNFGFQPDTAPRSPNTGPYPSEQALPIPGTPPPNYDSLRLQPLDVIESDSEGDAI
T1 sequence (P51170 1-649): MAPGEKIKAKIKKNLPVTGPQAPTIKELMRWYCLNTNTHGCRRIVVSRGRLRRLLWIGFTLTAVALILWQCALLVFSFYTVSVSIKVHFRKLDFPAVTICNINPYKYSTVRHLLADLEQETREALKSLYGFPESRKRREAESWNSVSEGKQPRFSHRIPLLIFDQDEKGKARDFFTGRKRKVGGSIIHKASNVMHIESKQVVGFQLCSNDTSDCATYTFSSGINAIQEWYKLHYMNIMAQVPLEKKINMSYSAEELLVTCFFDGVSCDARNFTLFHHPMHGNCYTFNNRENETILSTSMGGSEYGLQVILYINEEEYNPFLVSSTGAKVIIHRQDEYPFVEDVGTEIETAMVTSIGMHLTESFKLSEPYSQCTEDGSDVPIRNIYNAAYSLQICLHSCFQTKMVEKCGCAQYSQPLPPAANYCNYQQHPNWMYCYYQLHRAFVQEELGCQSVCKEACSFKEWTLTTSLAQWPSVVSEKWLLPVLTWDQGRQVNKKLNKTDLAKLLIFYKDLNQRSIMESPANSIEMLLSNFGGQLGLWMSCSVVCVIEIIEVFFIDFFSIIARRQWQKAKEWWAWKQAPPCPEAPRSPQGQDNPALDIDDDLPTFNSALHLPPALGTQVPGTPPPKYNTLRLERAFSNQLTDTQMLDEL
The experiment in a line: ENaC inhibition in NHBE cell monolayers, Ussing epithelial voltage clamp (short circuit current). Type of test: cell-based. The settings on record: NHBE cell monolayers, Ussing chamber, apical addition, 35±2° C.; read-out: IC50 for the ENaC inhibition. Here is the method: The objective of this study was to measure the ability of the illustrative conjugates to modulate ion transport function of ENAC in normal human bronchial epithelial (NHBE) cell monolayers. Sodium transport function of ENAC expressed in NHBE monolayers was evaluated using an Ussing epithelial voltage clamp apparatus. See, Hirsh et al., J. Pharmacol. Exp. Ther. 2008; 325:77-88, hereby incorporated by reference in its entirety.
Primary NHBE cells were isolated from bronchi of normal healthy patients, expanded in Lonza media (BEGM™ BulletKit™), and plated on Snapwell™ filters to form an epithelium. Cells on Snapwell™ inserts were grown for at least 21 days in Vertex Differentiation media and exposed to an air-liquid interface to promote differentiation. At least one day before the assay, mucous overlaying the apical surface was removed from the inserts by incubating the apical surface for about 30 minutes with ≥200 μL of differentiation media followed by aspiration of the mucous film and media.
The NHBE cell monolayers grown on Snapwell™ filter inserts were transferred to Physiologic Instruments Ussing recording chambers (Physiologic Instruments, Inc., San Diego, CA) and superfused with HB-PS. One or more 6-channel or 8-channel Physiologic Instruments VCC MC6 or VCC MC8 epithelial voltage clamps were used in combination to record short circuit current (ISC) from up to 24 inserts simultaneously. Air was used to operate the bubble lifts to rapidly circulate solutions in each Ussing chamber half and to aerate the monolayers.
Inserts were voltage clamped at 0 m V to record the ISC. Bumetanide (20 μM) was added to the basolateral side of all inserts. Test conjugates prepared as DMSO (Sigma-Aldrich) stocks were added cumulatively and sequentially to the apical Ussing chamber halves with at least 3 minutes between each addition.
Time and volume matched additions of DMSO to the basolateral side of the test conjugate treated inserts and both sides of the vehicle treated inserts was made to maintain osmotic balance across the epithelia. Transepithelial resistance was monitored with small voltage steps. The assay was performed at 35±2° C.
ENaC current at each test conjugate concentration was calculated as the peak current change produced by each test conjugate treated insert minus the mean current change produced by the corresponding DMSO additions to time-matched vehicle controls inserts. Cumulative difference data was fit to a Hill equation of the form: […]
Where IEnaC is the ISC peak difference current measured at each test conjugate concentration [Test].
As usually defined, the IC50 is the concentration that inhibits the measured activity by half. Consider `CC(=O)N[C@@H](CCCCNC(N)=NC(=O)c1nc(Cl)c(N)nc1N)C(=O)NCCCCCC(=O)N[C@@H](C)C(=O)N[C@@H](CO)C(=O)N[C@@H](Cc1c[nH]cn1)C(=O)N[C@@H](CC(C)C)C(=O)N[C@@H](CCCNC(=N)N)C(=O)N[C@@H](CCCCN)C(=O)N[C@@H](CC(C)C)C(=O)N[C@@H](CCCNC(=N)N)C(=O)N[C@@H](CCCCN)C(=O)N[C@@H](CCCNC(=N)N)C(=O)N[C@@H](CC(C)C)C(=O)N[C@@H](CC(C)C)C(N)=O` [Conjugate 2] (HELM PEPTIDE1{[ac].[NC(=NC(=O)c1nc(Cl)c(N)nc1N)NCCCC[C@H](N[*:1])C(=O)[*:2]].[O=C(CCCCCN[*:1])[*:2]].A.S.H.L.R.K.L.R.K.R.L.L.[am]}$$$$V2.0), for which the IC50 was found to be 80 nM.

With `CC(=O)N[C@@H](CCCCNC(N)=NC(=O)c1nc(Cl)c(N)nc1N)C(=O)NCCCCCC(=O)N[C@H](C(=O)N[C@@H](CO)C(=O)N[C@@H](CCCCN)C(=O)N[C@@H](CCCNC(=N)N)C(=O)N[C@@H](CCCNC(=N)N)C(N)=O)C(C)C` [Conjugate 3, Ac-(AmilAC)K-(Ahx)-VSKRR-NH2] (HELM PEPTIDE1{[ac].[NC(=NC(=O)c1nc(Cl)c(N)nc1N)NCCCC[C@H](N[*:1])C(=O)[*:2]].[O=C(CCCCCN[*:1])[*:2]].V.S.K.R.R.[am]}$$$$V2.0), the IC50 turned out to be 50 nM.

In the case of `CC[C@H](C)[C@H](NC(=O)[C@H](Cc1ccc(O)cc1)NC(=O)[C@@H]1C[C@@H](O)CN1C(=O)[C@H](C)NC(=O)[C@H](CC(C)C)NC(=O)[C@H](C)NC(=O)CCCCCNC(=O)[C@H](CCCCn1cc(CCCCCNC(N)=NC(=O)c2nc(Cl)c(N)nc2N)nn1)NC(C)=O)C(N)=O` [Conjugate 4, Ac-(AmilCC1-AzK)-Ahx-ALA(Hyp)YI-NH2], the IC50 was 240 nM.

Regarding `CC(=O)N[C@@H](CCCCn1cc(CCCCCNC(N)=NC(=O)c2nc(Cl)c(N)nc2N)nn1)C(=O)NCCCCCC(=O)N[C@H](C(=O)N[C@@H](CO)C(=O)N[C@@H](CCCCN)C(=O)N[C@@H](CCCNC(=N)N)C(=O)N[C@@H](CCCNC(=N)N)C(N)=O)C(C)C` [Conjugate 6, Ac-(AmilCC1-AzK)-Ahx-VSKRR-NH2], the IC50 worked out at 90 nM.

Regarding `CC[C@H](C)[C@H](NC(=O)[C@H](Cc1ccc(O)cc1)NC(=O)[C@@H]1C[C@@H](O)CN1C(=O)[C@H](C)NC(=O)[C@H](CC(C)C)NC(=O)[C@H](C)NC(=O)CCCCCNC(=O)[C@H](Cc1cn(CCCCNC(N)=NC(=O)c2nc(Cl)c(N)nc2N)nn1)NC(C)=O)C(N)=O` [Conjugate 7, Ac-(AmilCC2-Pgy)-Ahx-ALA(Hyp)YI-NH2], the IC50 was determined as 790 nM.

For `CC(=O)N[C@@H](CSC1CC(=O)N(CCCCNC(N)=NC(=O)c2nc(Cl)c(N)nc2N)C1=O)C(=O)NCCCCCC(=O)N[C@H](C(=O)N[C@@H](CO)C(=O)N[C@@H](CCCCN)C(=O)N[C@@H](CCCNC(=N)N)C(=O)N[C@@H](CCCNC(=N)N)C(N)=O)C(C)C` (stereo partly shown) [Conjugate 12, Ac-(AmilTC-C)-Ahx-VSKRR-NH2] (Ac-C(X2)[Ahx]VSKRR-NH2), the half-maximal inhibitory concentration (IC50) amounted to 80 nM.

Staying with this test, now noted: relative to amiloride IC50.
Regarding `CC(=O)N[C@@H](CCCCNC(N)=NC(=O)c1nc(Cl)c(N)nc1N)C(=O)NCCCCCC(=O)N[C@H](C(=O)N[C@@H](CO)C(=O)N[C@@H](CCCCN)C(=O)N[C@@H](CCCNC(=N)N)C(=O)N[C@@H](CCCNC(=N)N)C(N)=O)C(C)C` [Conjugate 3, Ac-(AmilAC)K-(Ahx)-VSKRR-NH2] (HELM PEPTIDE1{[ac].[NC(=NC(=O)c1nc(Cl)c(N)nc1N)NCCCC[C@H](N[*:1])C(=O)[*:2]].[O=C(CCCCCN[*:1])[*:2]].V.S.K.R.R.[am]}$$$$V2.0), the “fold more potent than amiloride (ENaC inhibition)” value is recorded as “about 10 fold”.

These data come from patent US20240374585A1, “EPITHELIAL SODIUM CHANNEL (ENAC) INHIBITOR CONJUGATES AND METHODS FOR USE THEREOF” (Lung Therapeutics, Inc., priority 2021, published 2024).
